Experimental data reported in US9163013B2, “Use of 1H-indazole-3-carboxamide compounds as glycogen synthase kinase 3 beta inhibitors” (AZIENDE CHIMICHE RIUNITE ANGELINI FRANCESCO A.C.R.A.F. …, priority 2012, dated 2015).
“And” between values parts separate entries of the source, which are not always exact repeats. Identical values can stand only once. One block for each molecule: values may come before it.

Tests used:
human GSK-3β [1] = molecular target: T1, human GSK-3β (Homo sapiens (Human), UniProt P49841); assay: Activity on human GSK-3β, substrate phosphorylation measured by LANCE technology; type: biochemical; settings: LANCE phosphorylation assay; five concentrations 100 μM to 10 nM, duplicate; read-out: IC50
Experimental: Activity on human GSK-3β was assessed using the following methods (according to Meijer et al., Chem. Biol., 2003-10:1255-1266).
In a first screening assay, compounds were tested in duplicate at a concentration of 10 μM.
Human recombinant enzyme GSK-3β was incubated for 90 minutes at 22° C. in the presence of compounds or vehicle in a reaction buffer containing ATP plus 100 nM unphosphorylated specific substrate peptide (Ulight-[…]-amide). Substrate phosphorylation was measured by LANCE technology (PerkinElmer, Conn., USA).
The results, reported in the following Table 4, are expressed as a percent of inhibition of control specific activity obtained in the presence of the test compounds (as % inhibition at 10 μm).
(§1) In a second assay, the same compounds were assayed at five concentrations ranging from 100 μM to 10 nM with ten-fold dilutions in duplicate. Compounds 1 to 7, 9, 11 and 13 to 26 were tested using the same first assay, compounds 8, 10, 12, and 27 to 31 were tested in another assay based on the binding and displacement of AlexaFluor® 647 labeled, ATP-competitive Kinase inhibitor scaffold using LanthaScreen™ TR-FRET technology Eu Kinase assay packet according to manufacturer's instruction (Life Technologies, Italy).
(§2) The IC50 values (concentration causing a half maximal inhibition of control specific activity), reported in table 4, were determined by non-linear regression analysis of the inhibition curves generated with mean replicate values using Hill equation curve fitting.

CDC2/CDK1 (h) (cycB) = CDC2/CDK1 (h) (cycB) (Homo sapiens (Human), UniProt P06493); assay: Kinase selectivity panel; type: biochemical; settings: duplicate, read-out: % inhibition of control values, CDC2/CDK1 (h) (cycB)
Experimental: (§3) (a) Compound 1 was tested against a panel of 60 kinases in order to assess its selectivity. The assays were chosen taking into consideration the diversity of assay families.
(§4) Human recombinant kinases were incubated in the presence of specific peptide substrates plus ATP for different times (10, 15, 30, 60 or 90 minutes) at 22° C. Phosphorylated substrate was detected by LANCE or HTRF technology (CISBIO, MA, USA).
(§5) Compound 1 was tested at 10 μM in duplicate.
(§6) The results are expressed as a percent of inhibition of control specific activity obtained in the presence of the test compound 1 and are reported in the following Table 5.
(§7) (b) Compounds 7, 12, 21 and 24 were tested against the same panel of 60 kinases under the same conditions described above for compound 1.
(§8) The results are expressed as a percent of inhibition of control specific activity obtained in the presence of the test compounds and are reported in the following Table 6.

CDK5/p35 (h) = CDK5/p35 (h) (Homo sapiens (Human), UniProt Q00535); assay: Kinase selectivity panel; type: biochemical; settings: duplicate, read-out: % inhibition of control values, CDK5/p35 (h)
Experimental: as §3, §4, §5, §6, §7, §8

ERK1 (h) = ERK1 (h) (Homo sapiens (Human), UniProt P27361); assay: Kinase selectivity panel; type: biochemical; settings: duplicate, read-out: % inhibition of control values, ERK1 (h)
Experimental: as §3, §4, §5, §6, §7, §8

ERK2 (h) (P42mapk) = ERK2 (h) (P42mapk) (Homo sapiens (Human), UniProt P28482); assay: Kinase selectivity panel; type: biochemical; settings: duplicate, read-out: % inhibition of control values, ERK2 (h) (P42mapk)
Experimental: as §3, §4, §5, §6, §7, §8

GSK3beta (h) = GSK3beta (h) (Homo sapiens (Human), UniProt P49841); assay: Kinase selectivity panel; type: biochemical; settings: for inhibition at 10 µM: duplicate, read-out: % inhibition of control values, GSK3beta (h); for Selectivity for GSK-3β compared to the other kinases of the panel: panel of 60 kinases, 10 μM
Experimental: as §3, §4, §5, §6, §7, §8

HGK (h) (MAP4K4) = HGK (h) (MAP4K4) (Homo sapiens (Human), UniProt O95819); assay: Kinase selectivity panel; type: biochemical; settings: duplicate, read-out: % inhibition of control values, HGK (h) (MAP4K4)
Experimental: as §3, §4, §5, §6, §7, §8

IRK (h) (InsR) = IRK (h) (InsR) (Homo sapiens (Human), UniProt P06213); assay: Kinase selectivity panel; type: biochemical; settings: duplicate, read-out: % inhibition of control values, IRK (h) (InsR)
Experimental: as §3, §4, §5, §6, §7, §8

MEK1/MAP2K1 (h) = MEK1/MAP2K1 (h) (Homo sapiens (Human), UniProt Q02750); assay: Kinase selectivity panel; type: biochemical; settings: duplicate, read-out: % inhibition of control values, MEK1/MAP2K1 (h)
Experimental: as §3, §4, §5, §6, §7, §8

NEK1 (h) = NEK1 (h) (Homo sapiens (Human), UniProt Q96PY6); assay: Kinase selectivity panel; type: biochemical; settings: duplicate, read-out: % inhibition of control values, NEK1 (h)
Experimental: as §3, §4, §5, §6, §7, §8

Src kinase (h) = Src kinase (h) (Homo sapiens (Human), UniProt P12931); assay: Kinase selectivity panel; type: biochemical; settings: duplicate, read-out: % inhibition of control values, Src kinase (h)
Experimental: as §3, §4, §5, §6, §7, §8

TAOK2 (TAO1) (h) = TAOK2 (TAO1) (h) (Homo sapiens (Human), UniProt Q9UL54); assay: Kinase selectivity panel; type: biochemical; settings: duplicate, read-out: % inhibition of control values, TAOK2 (TAO1) (h)
Experimental: as §3, §4, §5, §6, §7, §8

TRKA (h) = TRKA (h) (Homo sapiens (Human), UniProt P04629); assay: Kinase selectivity panel; type: biochemical; settings: duplicate, read-out: % inhibition of control values, TRKA (h)
Experimental: as §3, §4, §5, §6, §7, §8

smMLCK (h) (MYLK) = smMLCK (h) (MYLK) (Homo sapiens (Human), UniProt Q15746); assay: Kinase selectivity panel; type: biochemical; settings: duplicate, read-out: % inhibition of control values, smMLCK (h) (MYLK)
Experimental: as §3, §4, §5, §6, §7, §8

CDK2 (h) (cycA) = CDK2 (h) (cycA) (Homo sapiens (Human), UniProt P24941); assay: Kinase selectivity panel and IC50 determination; type: biochemical; settings: 10 μM, duplicate; read-out: % inhibition of control values, CDK2 (h) (cycA)
Experimental: as §3, §4, §5, §6
(§9) Compound 1 was also assayed to determine the IC50 values for three different kinases (PCTAIRE1, DYRK1a, and CDK2) in comparison to Gsk3β. The assay was conducted with the same method described above in test I, second assay.
as §7, §8

DYRK1a (h) = DYRK1a (h) (Homo sapiens (Human), UniProt Q13627); assay: Kinase selectivity panel and IC50 determination; type: biochemical; settings: 10 μM, duplicate; read-out: % inhibition of control values, DYRK1a (h)
Experimental: as §3, §4, §5, §6, §9, §7, §8

PCTAIRE1 kinase (h) = PCTAIRE1 kinase (h) (Homo sapiens (Human), UniProt Q00536); assay: Kinase selectivity panel and IC50 determination; type: biochemical; settings: 10 μM, duplicate; read-out: % inhibition of control values, PCTAIRE1 kinase (h)
Experimental: as §3, §4, §5, §6, §9, §7, §8

human GSK-3β [2] = molecular target: T1, human GSK-3β; assay: LanthaScreen TR-FRET Eu Kinase binding and displacement assay; settings: five concentrations 100 μM to 10 nM, duplicate
Experimental: as §1, §2

Sequence of GSK3beta (h) (P49841 whole entry): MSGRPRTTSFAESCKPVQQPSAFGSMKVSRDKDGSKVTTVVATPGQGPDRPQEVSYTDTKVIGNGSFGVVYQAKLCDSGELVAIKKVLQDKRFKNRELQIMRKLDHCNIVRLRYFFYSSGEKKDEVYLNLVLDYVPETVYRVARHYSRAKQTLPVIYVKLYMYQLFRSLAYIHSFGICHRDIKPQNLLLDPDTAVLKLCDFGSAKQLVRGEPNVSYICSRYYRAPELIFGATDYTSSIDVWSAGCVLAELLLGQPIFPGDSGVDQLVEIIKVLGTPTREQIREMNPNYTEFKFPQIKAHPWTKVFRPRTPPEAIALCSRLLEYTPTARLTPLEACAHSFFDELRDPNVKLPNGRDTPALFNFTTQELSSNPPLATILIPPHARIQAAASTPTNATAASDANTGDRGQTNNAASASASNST
T1 sequence (P49841 whole entry): as above
Sequence of ERK1 (h) (P27361 whole entry): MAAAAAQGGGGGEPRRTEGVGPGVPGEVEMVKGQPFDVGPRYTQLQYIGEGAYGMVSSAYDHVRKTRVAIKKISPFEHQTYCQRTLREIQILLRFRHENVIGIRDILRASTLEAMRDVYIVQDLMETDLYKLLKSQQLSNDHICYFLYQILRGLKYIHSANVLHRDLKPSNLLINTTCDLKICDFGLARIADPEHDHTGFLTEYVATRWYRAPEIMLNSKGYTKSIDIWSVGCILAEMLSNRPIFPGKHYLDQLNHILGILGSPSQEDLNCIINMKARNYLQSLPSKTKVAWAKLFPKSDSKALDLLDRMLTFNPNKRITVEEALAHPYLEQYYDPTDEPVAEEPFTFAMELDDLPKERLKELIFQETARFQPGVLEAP
Sequence of smMLCK (h) (MYLK) (Q15746 whole entry): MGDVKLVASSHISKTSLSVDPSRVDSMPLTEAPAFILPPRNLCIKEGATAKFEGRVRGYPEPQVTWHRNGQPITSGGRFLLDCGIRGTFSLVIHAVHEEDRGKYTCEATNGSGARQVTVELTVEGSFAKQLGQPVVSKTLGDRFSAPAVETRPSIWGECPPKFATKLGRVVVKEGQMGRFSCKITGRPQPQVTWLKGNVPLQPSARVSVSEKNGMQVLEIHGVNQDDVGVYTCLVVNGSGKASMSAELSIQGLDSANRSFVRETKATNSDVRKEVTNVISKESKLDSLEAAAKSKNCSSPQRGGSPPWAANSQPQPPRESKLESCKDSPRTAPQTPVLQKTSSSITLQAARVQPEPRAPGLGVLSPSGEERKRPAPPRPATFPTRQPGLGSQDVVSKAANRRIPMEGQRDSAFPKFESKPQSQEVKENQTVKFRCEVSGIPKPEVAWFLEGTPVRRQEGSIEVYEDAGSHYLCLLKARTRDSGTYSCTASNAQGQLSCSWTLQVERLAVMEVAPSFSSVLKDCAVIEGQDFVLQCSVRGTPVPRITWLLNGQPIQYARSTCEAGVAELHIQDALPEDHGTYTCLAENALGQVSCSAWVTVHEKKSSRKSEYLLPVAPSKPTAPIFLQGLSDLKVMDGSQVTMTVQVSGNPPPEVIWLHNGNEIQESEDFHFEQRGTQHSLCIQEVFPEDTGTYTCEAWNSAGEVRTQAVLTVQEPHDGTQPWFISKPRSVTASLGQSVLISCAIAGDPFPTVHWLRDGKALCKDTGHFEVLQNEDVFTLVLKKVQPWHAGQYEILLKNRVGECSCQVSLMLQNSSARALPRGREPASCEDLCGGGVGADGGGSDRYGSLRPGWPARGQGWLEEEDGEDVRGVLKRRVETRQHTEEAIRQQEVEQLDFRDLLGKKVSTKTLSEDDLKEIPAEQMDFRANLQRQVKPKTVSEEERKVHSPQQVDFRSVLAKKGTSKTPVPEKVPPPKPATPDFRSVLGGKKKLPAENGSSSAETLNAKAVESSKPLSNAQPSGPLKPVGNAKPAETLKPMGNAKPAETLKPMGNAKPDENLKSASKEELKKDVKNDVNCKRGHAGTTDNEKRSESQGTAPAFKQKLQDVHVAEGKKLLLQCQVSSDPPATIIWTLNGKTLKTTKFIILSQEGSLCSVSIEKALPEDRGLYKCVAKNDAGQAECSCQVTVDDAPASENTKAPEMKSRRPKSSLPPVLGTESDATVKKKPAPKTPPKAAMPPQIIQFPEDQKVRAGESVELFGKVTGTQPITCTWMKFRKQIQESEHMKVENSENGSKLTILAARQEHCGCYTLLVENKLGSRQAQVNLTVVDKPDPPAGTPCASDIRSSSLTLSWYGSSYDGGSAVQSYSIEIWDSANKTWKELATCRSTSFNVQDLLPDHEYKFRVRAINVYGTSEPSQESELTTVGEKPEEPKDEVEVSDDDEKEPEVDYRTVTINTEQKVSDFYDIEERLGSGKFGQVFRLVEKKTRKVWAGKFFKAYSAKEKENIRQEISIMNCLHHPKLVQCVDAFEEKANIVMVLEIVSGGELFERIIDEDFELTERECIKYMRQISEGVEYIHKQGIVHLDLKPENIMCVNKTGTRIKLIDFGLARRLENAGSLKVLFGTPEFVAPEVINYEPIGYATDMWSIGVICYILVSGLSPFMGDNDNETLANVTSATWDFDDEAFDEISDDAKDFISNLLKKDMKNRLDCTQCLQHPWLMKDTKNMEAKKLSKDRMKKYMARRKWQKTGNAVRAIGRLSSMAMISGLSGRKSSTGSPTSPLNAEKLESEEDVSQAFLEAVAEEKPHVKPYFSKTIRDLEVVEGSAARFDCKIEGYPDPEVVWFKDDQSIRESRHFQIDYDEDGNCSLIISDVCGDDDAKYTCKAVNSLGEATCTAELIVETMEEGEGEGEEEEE
Sequence of CDK5/p35 (h) (Q00535 whole entry): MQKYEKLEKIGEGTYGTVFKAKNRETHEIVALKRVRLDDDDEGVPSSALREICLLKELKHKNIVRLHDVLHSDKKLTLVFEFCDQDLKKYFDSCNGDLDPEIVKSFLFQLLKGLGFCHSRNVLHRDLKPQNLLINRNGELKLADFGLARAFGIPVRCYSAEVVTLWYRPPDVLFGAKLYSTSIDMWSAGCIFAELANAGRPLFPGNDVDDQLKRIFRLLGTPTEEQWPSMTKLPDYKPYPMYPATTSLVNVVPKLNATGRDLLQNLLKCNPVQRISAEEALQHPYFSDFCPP
Sequence of CDK5/p35 (h) (Q15078 whole entry partner): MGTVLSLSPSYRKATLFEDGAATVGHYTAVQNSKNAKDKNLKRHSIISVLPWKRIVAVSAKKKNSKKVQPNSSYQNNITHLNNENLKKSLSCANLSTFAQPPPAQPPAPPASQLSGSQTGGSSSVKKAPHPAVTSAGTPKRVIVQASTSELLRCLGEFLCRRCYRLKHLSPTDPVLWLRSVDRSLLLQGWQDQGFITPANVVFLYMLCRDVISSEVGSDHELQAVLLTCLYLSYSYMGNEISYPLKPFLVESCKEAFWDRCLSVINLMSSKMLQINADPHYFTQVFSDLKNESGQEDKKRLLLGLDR
Sequence of ERK2 (h) (P42mapk) (P28482 whole entry): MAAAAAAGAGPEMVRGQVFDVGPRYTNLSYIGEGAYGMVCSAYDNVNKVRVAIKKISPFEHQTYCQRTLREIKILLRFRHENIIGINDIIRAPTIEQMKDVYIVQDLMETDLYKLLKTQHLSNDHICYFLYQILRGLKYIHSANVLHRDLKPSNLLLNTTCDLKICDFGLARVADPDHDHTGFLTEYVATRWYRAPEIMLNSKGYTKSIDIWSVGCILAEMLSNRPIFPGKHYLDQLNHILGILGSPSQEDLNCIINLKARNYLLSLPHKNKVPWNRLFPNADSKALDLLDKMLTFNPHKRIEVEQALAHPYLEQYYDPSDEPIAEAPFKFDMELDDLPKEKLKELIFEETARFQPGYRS
Sequence of Src kinase (h) (P12931 whole entry, looked up): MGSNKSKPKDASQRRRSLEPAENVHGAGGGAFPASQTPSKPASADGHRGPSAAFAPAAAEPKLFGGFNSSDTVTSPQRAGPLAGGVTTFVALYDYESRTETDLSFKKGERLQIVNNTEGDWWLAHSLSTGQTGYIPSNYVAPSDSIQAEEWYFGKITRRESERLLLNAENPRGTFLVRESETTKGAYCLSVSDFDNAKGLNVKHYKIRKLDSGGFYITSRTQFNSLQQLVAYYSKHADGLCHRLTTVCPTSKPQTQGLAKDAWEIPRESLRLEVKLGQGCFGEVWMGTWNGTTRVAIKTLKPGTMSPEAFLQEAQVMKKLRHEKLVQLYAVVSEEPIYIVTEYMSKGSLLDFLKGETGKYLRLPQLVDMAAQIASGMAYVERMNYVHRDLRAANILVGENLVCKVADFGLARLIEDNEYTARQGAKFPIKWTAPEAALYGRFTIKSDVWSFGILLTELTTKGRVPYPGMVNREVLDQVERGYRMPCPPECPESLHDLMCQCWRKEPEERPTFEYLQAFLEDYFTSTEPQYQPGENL
Sequence of PCTAIRE1 kinase (h) (Q00536 whole entry): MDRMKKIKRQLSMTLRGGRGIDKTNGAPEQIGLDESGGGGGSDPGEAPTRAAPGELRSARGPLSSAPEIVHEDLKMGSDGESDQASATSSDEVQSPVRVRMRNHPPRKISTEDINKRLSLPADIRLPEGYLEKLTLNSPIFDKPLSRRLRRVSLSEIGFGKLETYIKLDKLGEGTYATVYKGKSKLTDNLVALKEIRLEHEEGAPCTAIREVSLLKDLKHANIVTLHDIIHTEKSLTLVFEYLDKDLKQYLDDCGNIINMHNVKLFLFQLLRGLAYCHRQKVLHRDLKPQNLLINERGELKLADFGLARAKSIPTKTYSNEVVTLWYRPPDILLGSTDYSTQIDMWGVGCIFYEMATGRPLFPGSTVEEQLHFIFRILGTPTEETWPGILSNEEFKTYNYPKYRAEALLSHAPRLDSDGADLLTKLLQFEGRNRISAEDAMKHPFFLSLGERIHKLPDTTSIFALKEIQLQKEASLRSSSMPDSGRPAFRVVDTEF

IC50 (human GSK-3β [1]): 130 nM
inhibition at 10 µM (CDC2/CDK1 (h) (cycB)): 6%
inhibition at 10 µM (CDK5/p35 (h)): 21%
inhibition at 10 µM (ERK1 (h)): 31%
inhibition at 10 µM (ERK2 (h) (P42mapk)): 33%
inhibition at 10 µM (GSK3beta (h)): 96%
Selectivity for GSK-3β compared to the other kinases of the panel (GSK3beta (h)): good selectivity profile
inhibition at 10 µM (HGK (h) (MAP4K4)): 21%
inhibition at 10 µM (IRK (h) (InsR)): 0%
inhibition at 10 µM (MEK1/MAP2K1 (h)): 27%
inhibition at 10 µM (NEK1 (h)): 0%
inhibition at 10 µM (Src kinase (h)): 9%
inhibition at 10 µM (TAOK2 (TAO1) (h)): 16%
inhibition at 10 µM (TRKA (h)): 1%
inhibition at 10 µM (smMLCK (h) (MYLK)): 26%
inhibition at 10 µM (CDK2 (h) (cycA)): 48%
inhibition at 10 µM (DYRK1a (h)): 88%
inhibition at 10 µM (PCTAIRE1 kinase (h)): 2%
SMILES: COC(=O)c1csc(CN2CCC(CNC(=O)c3n[nH]c4ccc(OC)cc34)CC2)n1 [Compound 7, Methyl 2-{[4-({[(5-methoxy-1H-indazol-3-yl)carbonyl]amino}methyl)piperidin-1-yl]methyl}-1,3-thiazole-4-carboxylate]

IC50 (human GSK-3β [2]): 170 nM
SMILES: COc1ccc2[nH]nc(C(=O)NCC3CCN(Cc4nc(C(=O)O)cs4)CC3)c2c1 [Compound 8, 2-{[4-({[(5-Methoxy-1H-indazol-3-yl)carbonyl]amino}methyl)piperidin-1-yl]methyl}-1,3-thiazole-4-carboxylic acid]

IC50 (human GSK-3β [2]): 310 nM
SMILES: COc1ccc2[nH]nc(C(=O)NCC3CCN(Cc4nc(C(=O)O)co4)CC3)c2c1 [Compound 10, 2-{[4-({[(5-Methoxy-1H-indazol-3-yl)carbonyl]amino}methyl)piperidin-1-yl]methyl}-1,3-oxazole-4-carboxylic acid hydrate]

IC50 (human GSK-3β [2]): 10 nM
inhibition at 10 µM (CDC2/CDK1 (h) (cycB)): 77%
inhibition at 10 µM (CDK5/p35 (h)): 87%
inhibition at 10 µM (ERK1 (h)): 85%
inhibition at 10 µM (ERK2 (h) (P42mapk)): 91%
inhibition at 10 µM (GSK3beta (h)): 100%
inhibition at 10 µM (HGK (h) (MAP4K4)): 98%
inhibition at 10 µM (IRK (h) (InsR)): 0%
inhibition at 10 µM (MEK1/MAP2K1 (h)): 86%
inhibition at 10 µM (NEK1 (h)): 30%
inhibition at 10 µM (Src kinase (h)): 15%
inhibition at 10 µM (TAOK2 (TAO1) (h)): 81%
inhibition at 10 µM (TRKA (h)): 5%
inhibition at 10 µM (smMLCK (h) (MYLK)): 36%
inhibition at 10 µM (CDK2 (h) (cycA)): 96%
inhibition at 10 µM (DYRK1a (h)): 99%
inhibition at 10 µM (PCTAIRE1 kinase (h)): 42%
SMILES: O=C(O)c1coc(CN2CCC(CNC(=O)c3n[nH]c4ccc(-c5cccc(F)c5F)cc34)CC2)n1 [Compound 12, 2-({4-[({[5-(2,3-Difluorophenyl)-1H-indazol-3-yl]carbonyl}amino)methyl]piperidin-1-yl}methyl)-1,3-oxazole-4-carboxylic acid hydrate]
Selectivity for GSK-3β compared to the other kinases of the panel (GSK3beta (h)): good affinity to GSK-3β when compared to most of other kinases of the same family

IC50 (human GSK-3β [1]): 10 nM
SMILES: O=C(O)c1ccc(CN2CCC(CNC(=O)c3n[nH]c4ccc(-c5cccc(F)c5F)cc34)CC2)o1 [Compound 19, 5-({4-[({[5-(2,3-Difluorophenyl)-1H-indazol-3-yl]carbonyl}amino)methyl]piperidin-1-yl}methyl)furan-2-carboxylic acid]

IC50 (human GSK-3β [1]): 20 nM
SMILES: O=C(O)c1ccc(CN2CCC(CNC(=O)c3n[nH]c4ccc(-c5ccccc5F)cc34)CC2)o1 [Compound 20, 5-({4-[({[5-(2-Fluorophenyl)-1H-indazol-3-yl]carbonyl}amino)methyl]piperidin-1-yl}methyl)furan-2-carboxylic acid hydrate]

IC50 (human GSK-3β [1]): 210 nM
SMILES: O=C(O)c1ccc(CN2CCC(CNC(=O)c3n[nH]c4ccc(Br)cc34)CC2)o1 [Compound 22, 5-{[4-({[(5-Bromo-1H-indazol-3-yl)carbonyl]amino}methyl)piperidin-1-yl]methyl}furan-2-carboxylic acid]

IC50 (human GSK-3β [1]): 330 nM
SMILES: CCOC(=O)c1ccc(CN2CCC(CNC(=O)c3n[nH]c4ccc(OC)cc34)CC2)o1 [Compound 23, Ethyl 5-{[4-({[(5-methoxy-1H-indazol-3-yl)carbonyl]amino}methyl)piperidin-1-yl]methyl}furan-2-carboxylate]

IC50 (human GSK-3β [1]): > 1000 nM and 1400 nM
SMILES: COc1ccc2[nH]nc(C(=O)NCC3CCN(CCN4C[C@@H](C)O[C@@H](C)C4)CC3)c2c1 [Compound 25, N-[(1-{2-[(2R,6S)-2,6-dimethylmorpholin-4-yl]ethyl}piperidin-4-yl)methyl]-5-methoxy-1H-indazole-3-carboxamide]

IC50 (human GSK-3β [1]): > 1000 nM and 2100 nM
SMILES: COc1ccc2[nH]nc(C(=O)NCC3CCN(CCCN4C[C@@H](C)O[C@@H](C)C4)CC3)c2c1 [Compound 26, N-[(1-{3-[(2R,6S)-2,6-dimethylmorpholin-4-yl]propyl}piperidin-4-yl)methyl]-5-methoxy-1H-indazole-3-carboxamide]

IC50 (human GSK-3β [2]): 310 nM
SMILES: COc1ccc2[nH]nc(C(=O)NCC3CCN(CCC4CCCC(C)C4)CC3)c2c1 (stereo not drawn) [Compound 27, 5-methoxy-N-({1-[2-(3-methylcyclohexyl)ethyl]piperidin-4-yl}methyl)-1H-indazole-3-carboxamide]

IC50 (human GSK-3β [2]): 450 nM
SMILES: COc1ccc2[nH]nc(C(=O)NCC3CCN(Cc4ccnc(C(=O)O)c4)CC3)c2c1 [Compound 28, 4-{[4-({[(5-methoxy-1H-indazol-3-yl)carbonyl]amino}methyl)piperidin-1-yl]methyl}pyridine-2-carboxylic acid]

IC50 (human GSK-3β [2]): 320 nM
SMILES: COc1ccc2[nH]nc(C(=O)NCC3CCN(Cc4ccc(C(=O)O)nc4)CC3)c2c1 [Compound 29, Sodium 5-{[4-({[(5-methoxy-1H-indazol-3-yl)carbonyl]amino}methyl)piperidin-1-yl]methyl}pyridine-2-carboxylate]

IC50 (human GSK-3β [2]): 310 nM
SMILES: COc1ccc2[nH]nc(C(=O)NCC3CCN(Cc4noc(C(N)=O)n4)CC3)c2c1 [Compound 30, N-({1-[(5-carbamoyl-1,2,4-oxadiazol-3-yl)methyl]piperidin-4-yl}methyl)-5-methoxy-1H-indazole-3-carboxamide]
